Test results from US20240076609A1, “COMPOSITIONS AND METHODS FOR CULTURING AND EXPANDING CELLS” (LIFE TECHNOLOGIES CORPORATION, priority 2017, published 2024).
Values joined by “and” are separate entries in the source; they are usually repeats but may differ in a detail not shown here. Equal values may be shown once. “Also recorded” adds a separate entry of the source.

Assays:
Non-naïve T cells [1] = experiment: Expansion of non-naïve T cells with 2-DG; type: cell-based, human; conditions: 4 mM 2-DG
Procedure: T cell activation and expansion: T cells (seeding density 1×10^6 vc/mL) were activated with DYNABEADS® Human T-Expander CD3/CD28 (Thermo Fisher Scientific, Cat. No. 11141D) at a ratio of 3 beads per T cell and cultured in serum-free medium, animal origin free medium. T cells were counted on days 5, 7, 10, and 12 on a Vi-CELL XR analyzer (Beckman Coulter, Indianapolis IN) and fed with or without 2-DG (0.25 mM, 0.5 mM, 1 mM, 2 mM, and 4 mM) and 5% human AB serum to a density of 5×10^5 vc/mL on days 3, 5, and 7 and 1×10^6 vc/mL on day 10. For some studies, CD8+ and CD4+ T cells were isolated from PBMCs by negative selection using Untouched Human CD8+ and CD4+ T Cells Kits. Naïve and non-naïve T cells were isolated from enriched T cells by positive selection using CD45RA nanobeads (Miltenyi). […]

Non-naïve T cells [2] = experiment: CD8+/CD4+ phenotype after 10 days with 2-DG in non-naïve T cells; type: cell-based, human; conditions: 4 mM 2-DG
Procedure: (§1) For some studies, CD8+ and CD4+ T cells were isolated from PBMCs by negative selection using Untouched Human CD8+ and CD4+ T Cells Kits. Naïve and non-naïve T cells were isolated from enriched T cells by positive selection using CD45RA nanobeads (Miltenyi). Phenotype: Primary human T cells were expanded for 10 days with and without 2-DG and 5% human AB serum. DYNABEADS® were removed from 2×10^6 cells by magnetic separation. Surface staining was performed with antibodies against CD3 (Invitrogen, Cat. No. CD0329), CD4 (Molecular Probes, Cat. No. A15858), CD8 (Invitrogen, Cat. No. MHCD0828). Flow cytometric analysis was performed on a Gallios flow cytometer and Kaluza software (Beckman Coulter, Indianapolis IN). For some studies, CD8+ and CD4+ T cells were isolated from PBMCs by negative selection using Untouched Human CD8+ and CD4+ T Cells Kits. Naïve and non-naïve T cells were isolated from enriched T cells by positive selection using CD45RA nanobeads (Miltenyi). Phenotype: Primary human T cells were expanded for 10 days with and without 2-DG and 5% human AB serum. DYNABEADS® were removed from 2×10^6 cells by magnetic separation. Surface staining was performed with antibodies against CD3 (Invitrogen, Cat. No. CD0329), CD4 (Molecular Probes, Cat. No. A15858), CD8 (Invitrogen, Cat. No. MHCD0828). Flow cytometric analysis was performed on a Gallios flow cytometer and Kaluza software (Beckman Coulter, Indianapolis IN).

[3] = tested on: mixed CD4+ T cells and CD8+ T cells; experiment: CD4+/CD8+ frequencies after 10 days with 2-DG in mixed CD4+:CD8+ cells (5:1, 10:1); type: cell-based, human; conditions: 0.25 mM 2-DG; for correction of deficits in CD8+ T cells compared to day 0: CD4+:CD8+ mixed 5:1 and 10:1
Procedure: as §1

Primary human T cells = experiment: Cytokine production upon re-stimulation (35-Plex Luminex) with 2-DG; type: cell-based; conditions: expanded 12 days, multiplexed cytokine assay
Text: Cytokine Profiles: Primary human T cells from normal donors were negatively isolated from PBMCs with the DYNABEADS® UNTOUCHED™ Human T Cells kit (Thermo Fisher Scientific, Cat. No. 11344D). T cells (seeding density 1×10^6 vc/mL) were activated with DYNABEADS® Human T-Expander CD3/CD28 (Thermo Fisher Scientific, Cat. No. 11141D) at a ratio of 3 beads per T cell and cultured in serum-free and animal origin free medium or control medium X-VIVO™ 15 (Lonza, Cat. No. BE02-054Q) supplemented with 5% human AB serum. T cells were counted on days 5, 7, 10, and 12 on a Vi-CELL XR analyzer (Beckman Coulter, Indianapolis IN) and fed to a density of 5×10^5 vc/mL on days 3, 5, and 7 and to a density of 1×10^6 vc/mL on day 10. DYNABEADS® were magnetically removed from cultures on day 10 and cells were spun to remove conditioned medium and rested overnight in fresh medium. […]
T cells were expanded for 12 days and re-stimulated with DYNABEADS® Human T-Expander CD3/CD28. Cytokine production upon re-stimulation was assessed with Invitrogen Cytokine Human Magnetic 35-Plex Panel for LUMINEX™. […]
T cells were expanded for 12 days and re-stimulated with DYNABEADS® Human T-Expander CD3/CD28. Cytokine production upon re-stimulation was assessed with Invitrogen Cytokine Human Magnetic 35-Plex Panel for LUMINEX™.

[4] = Day 10, non-naïve T cells, replicates
[5] = Day 10, 10:1 CD4+ CD8+ ratio, average
[6] = Day 10, 5:1 CD4+ CD8+ ratio, replicates
[7] = Day 10, 10:1 CD4+ CD8+ ratio, replicates

O=CC[C@@H](O)[C@H](O)[C@H](O)CO [2-DG, 2-Deoxy-D-Glucose]
effect of 2-DG on growth of non-naïve T cells (Non-naïve T cells [1]; 12 days): did not affect growth of either cell type; also recorded: modest effect | Cultured Non-Naïve T Cell Population Doublings (Non-naïve T cells [1]; day 5): −0.24 | Cultured Non-Naïve T Cell Population Doublings (Non-naïve T cells [1]; day 7): 1.25 | Cultured Non-Naïve T Cell Population Doublings (Non-naïve T cells [1]; day 10): 3.37 | Cultured Non-Naïve T Cell Population Doublings (Non-naïve T cells [1]; day 12): 4.64 | effect on CD8+:CD4+ ratio in non-naïve T cells (Non-naïve T cells [2]; 10 days): lesser effect | % CD4+ (Avg) (Non-naïve T cells [2]; Day 10, non-naïve T cells): 81.08% | % CD8+ (Avg) (Non-naïve T cells [2]; Day 10, non-naïve T cells): 12.23% | % Ratios (CD8+/CD4+) (Non-naïve T cells [2]; Day 10, non-naïve T cells): 0.15 | % CD4+ (Non-naïve T cells [2]; [4]): 80.85% and 81.31% | % CD8+ (Non-naïve T cells [2]; [4]): 12.23% | Fold Increase compared to Baseline (Non-naïve T cells [2]; Day 10 vs Day 0, non-naïve T cells): 0.35 | % CD4+ ([3]; Day 10, 10:1 CD4+ CD8+ ratio): 44.89% and 44.25% | % CD4+ (Avg) ([3]; Day 10, 10:1 CD4+ CD8+ ratio): 44.57% | % CD8+ ([3]; Day 10, 10:1 CD4+ CD8+ ratio): 43.55% and 45.35% | % CD8+ (Avg) ([3]; Day 10, 10:1 CD4+ CD8+ ratio): 44.45% | % CD4+ (Avg) [3, 5]: 44.57% | % CD8+ (Avg) [3, 5]: 44.45% | % CD4+ (Avg) ([3]; Day 10, 5:1 CD4+ CD8+ ratio): 33.39% | % CD8+ (Avg) ([3]; Day 10, 5:1 CD4+ CD8+ ratio): 53.83% | % CD4+ [3, 6]: 32.91% and 33.88% | % CD8+ [3, 6]: 53.50% and 54.17% | % CD4+ [3, 7]: 44.25% and 44.89% | % CD8+ [3, 7]: 45.35% and 43.55% | correction of deficits in CD8+ T cells compared to day 0 [3]: able to correct for a large deficits in CD8+ T cells | correction of deficits in CD8+ T cells compared to day 0 ([3]; listed as 2-DH): able to correct for substantial deficits in CD8+ T cells | cytokine production / function of the cells upon re-stimulation (Primary human T cells): no change in cytokine production; also recorded: does not alter the function of the cells
